Reference: patent publication US9260384B2, “Urea compounds and use thereof for inhibiting apoptosis” (Chinese PLA General Hospital, priority 2010, dated 2016)

Experiments:
primary cardiomyocytes = assay: Measurement of cell inhibition rate (MTT) on normal primary cardiomyocytes; assay type: cell-based, neonatal Wistar rats
Experimental: The isolation and culture of cardiomyocytes were performed by referring to the differential adhesion method (Kreider, A. Messing, H. Doan, S. U. Kim, R. P. Lisak and D. E. Pleasure, Enrichment of Schwann cell cultures from neonatal rat sciatic nerve by differential adhesion, Brain Res 2 (1981), pp. 433-444). […]
(§1) The isolated primary culture of cardiomyocytes was inoculated in an amount of 10^4 cells per well to a 96-well plate, and the volume of each well was 100 ul (marginal wells were filled with sterile PBS). […] The optical density (OD) value of each well was measured at wavelength of 550 nm by enzyme-linked immunoassay instrument, and each well was repeatedly measured for 5 times and the results were recorded.

[1] = system: TG-induced cardiomyocytes apoptosis; assay: Protection against TG-induced cardiomyocyte apoptosis (MTT); assay type: cell-based, Wistar sucking mice
Experimental: The isolation and culture of cardiomyocytes were performed by referring to the differential adhesion method (Kreider, A. Messing, H. Doan, S. U. Kim, R. P. Lisak and D. E. Pleasure, Enrichment of Schwann cell cultures from neonatal rat sciatic nerve by differential adhesion, Brain Res 2 (1981), pp. 433-444). Wistar sucking mice newborn within 24 h were used, sterilized at skin of ventrum with iodine tincture and ethanol, subjected to thoracotomy using scissors at subxiphoid median line with a deviation to left, heart was taken out after slant thoracotomy and placed in PBS precooled with ice; the heart was softly blown and beaten with 0.01M PBS to remove blood cells and other tissues, then cut into pieces with 0.5 mm^3 size, washed with 0.01 M PBS repeatedly for 2-3 times; the pieces were placed in conical flask, added with 4 ml of 0.125% pancretin, 1 ml of 0.1% collagenase II (final concentrations separately being 0.1% and 0.02%), shaken in 37° C. water bath for 10 min, the supernatant was discarded; then 4 ml of 0.125% pancretin and 1 ml of 0.1% collagenase II again, shaken in 37° C. water bath for digestion for 10 min, the supernatant was sucked and transferred to a centrifuge tube, and the supernatant was added with DMEM containing 10% FBS to terminate digestion; the step of shaking and digestion in water bath was repeated for 3-4 times, until the tissue pieces were completely digested; the collected cell suspension was centrifuged under 1000 rpm for 10 min, the supernatant was removed, then a culture medium was added for resuspension; the resuspended cells were inoculated in a cell culture flask, placed in CO2 incubator at 37° C. for incubation for 1.5 h, then the culture medium was sucked out, countered under microscope, then DMEM culture medium containing 10% FBS was used to adjust cell density, inoculated in an amount of 1×10^4 to a 96-well plate, placed in 5% CO2 incubator at 37° C. for 24 h, then half medium was replaced, a culture medium containing 0.1% Brdu was supplementally added; then the medium was replaced once per 48 h, and primary cardiomyocytes were obtained after 4 days of cultivation.
as §1, with “recorded. […]” for “recorded.”

SMILES: O=C(/C=C/c1ccccc1)NC(NC(=O)Nc1cccc2cccnc12)C(Cl)(Cl)Cl (stereo not shown) [Example 1, (2E)-3-phenyl-N-[1-(8-quinolylamino)formylamino-2,2,2-trichloroethyl]-2-acrylamide]
- inhibition at 30 µM (primary cardiomyocytes; Cardiomyocyte, 30 μM compound, 48 h, MTT, cell survival rate = 1 − cell inhibition rate): 9.57 ± 1.62%
- inhibition at 300 µM (primary cardiomyocytes; Cardiomyocyte, 300 μM compound, 48 h, MTT, cell survival rate = 1 − cell inhibition rate): 7.78 ± 3.42%
- effect on survival rate of normal cardiomyocytes (primary cardiomyocytes; concentration within 300 μM): no effect

SMILES: C/C=C(/C)C(=O)O[C@H]1C(C)=C2[C@H]([C@@H]1OC(=O)CCCCCCC)[C@@](C)(OC(C)=O)C[C@H](OC(=O)CCC)[C@@]1(O)[C@H]2OC(=O)[C@@]1(C)O [TG, thapsigargin, reference compound]
- Cardiomyocyte survival rate (%) ([1]; TG alone 0.4 uM (apoptosis inducer)): 59 ± 1.1%

SMILES: O=C(/C=C/c1ccccc1)NC(NC(=O)Nc1cccc2cccnc12)C(Cl)(Cl)Cl (stereo not shown) [Example 5, (2E)-3-phenyl-N-[1-(8-quinolylamino)formylamino-2,2,2-trichloroethyl]-2-acrylamide]
- Cardiomyocyte survival rate (%) ([1]; TG 0.4 uM + compound 0.3 μM, pretreatment 30 min before TG): 79.3 ± 4.6%
- Cardiomyocyte survival rate (%) ([1]; TG 0.4 uM + compound 1 μM, pretreatment 30 min before TG): 83.8 ± 8.3%
- Cardiomyocyte survival rate (%) ([1]; TG 0.4 uM + compound 3 μM, pretreatment 30 min before TG): 84.2 ± 1.1%
